Experimental data: patent US5484940A, “Substituted 3-indolyl-5-pyrazolone compounds” (priority 1994, dated 1996)

How the values were obtained:
[1] = tested on: β-amyloid peptide production; test: Cellular screen for inhibitors of β-amyloid production (ELISA, 293 751 SWE cells); format: cell-based, human; conditions: 2 h pretreatment + 2 h, normalized for cytotoxicity (MTT), concentration not given
Outline: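 293 751 SWE cells (K293 stably expressing APP751 Swedish mutant) pretreated 2 h with compound, then fresh compound-containing medium for 2 h more at 37 °C. Secreted β-amyloid in conditioned medium quantified by sandwich ELISA (capture 266 anti-Aβ13-28, labelled 6C6 anti-Aβ1-16) against a standard curve as ng/mL; mean ± SD of ≥6 replicates.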

5-lipoxygenase = target: T1, 5-lipoxygenase (Rattus norvegicus, UniProt P12527); test: 5-Lipoxygenase inhibition (5-HETE radioimmunoassay); format: biochemical; conditions: crude enzyme from RBL-1 cells, read-out: Percent Inhibition (5-lipoxygenase)
T1 construct: crude 5-lipoxygenase enzyme from rat basophilic leukemia cells (RBL-1); endogenous in cells; host or cells: RBL-1 (rat basophilic leukemia cells), crude enzyme
T1 sequence (P12527 1-673): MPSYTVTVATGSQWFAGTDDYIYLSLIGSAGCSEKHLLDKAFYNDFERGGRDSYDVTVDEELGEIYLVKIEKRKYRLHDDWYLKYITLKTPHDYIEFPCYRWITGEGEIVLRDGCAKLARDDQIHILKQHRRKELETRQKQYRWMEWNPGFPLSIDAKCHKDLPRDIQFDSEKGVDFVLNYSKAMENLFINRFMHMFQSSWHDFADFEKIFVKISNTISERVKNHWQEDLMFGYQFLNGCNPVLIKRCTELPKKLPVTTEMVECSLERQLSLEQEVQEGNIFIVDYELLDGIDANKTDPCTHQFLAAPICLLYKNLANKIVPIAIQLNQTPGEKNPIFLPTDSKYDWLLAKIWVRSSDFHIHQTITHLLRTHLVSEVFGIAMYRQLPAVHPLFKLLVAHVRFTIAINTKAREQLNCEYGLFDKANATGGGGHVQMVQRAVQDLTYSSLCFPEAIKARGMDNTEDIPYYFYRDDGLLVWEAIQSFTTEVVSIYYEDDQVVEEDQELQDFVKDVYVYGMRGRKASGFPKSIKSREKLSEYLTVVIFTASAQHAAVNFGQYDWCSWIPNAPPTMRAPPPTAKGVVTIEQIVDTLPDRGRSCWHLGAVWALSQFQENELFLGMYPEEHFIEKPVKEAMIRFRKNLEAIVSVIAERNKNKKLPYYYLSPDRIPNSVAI
Experimental: 5-Lipoxygenase catalyzes the oxidative metabolism of arachidonic acid to 5-hydroperoxyeicosatetraenoid acid ([…]), the initial reaction leading to the formation of the leukotrienes^18. Accordingly, compounds inhibiting 5-lipoxygenase activity are art recognized to have anti-inflammatory properties.
The ability of test compounds to inhibit 5-lipoxygenase activity was determined in assays^19 using crude 5-lipoxygenase enzyme from rat basophilic leukemia cells (RBL-1). Test compounds are pre-incubated with the enzyme for 5 minutes at room temperature and the reaction is initiated by addition of substrate (arachidonic acid). Following an 8 minute incubation at room temperature, the reaction is terminated by addition of citric acid, and levels of 5-HETE determined by 5-HETE radioimmunoassay.

293 751 SWE cells = test: Cytotoxicity (MTT) in 293 751 SWE cells; format: cell-based, human; conditions: concentration not given
Outline: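 Used HEK293 cells stably expressing APP751 carrying the Swedish double mutation (K651N/M652L), plated at 1.5-2.5×10^4 cells/well in DMEM + 10% FBS. MTT was added to a final 1 mg/mL for 1 h at 37 °C, then lysed in SDS/DMF (pH 4.7) overnight. Viability was read as OD562 − OD650.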

Ultraviolet absorption = format: physicochemical; conditions: 0.1 mg/mL in methanol, 1 cm quartz cuvette
Experimental: The ultraviolet (UV) absorption properties of two representative substituted 3-indolyl-5-pyrazolones were evaluated and compared to indomethacin [1-(4-chlorobenzoyl)-5-methoxy-2-methyl-^1 H-indole-3-acetic acid], a compound known to absorb UV light (See page 4855 of the Merck Index, 10th Edition, Windholz, et al. Editor (1983)). Specifically, 0.1 mg/mL of 3-indolyl-5-pyrazolone (Ex. 9 or 33) or indomethacin in methanol was added to a quartz cuvette (1 cm) and the UV absorption of this solution was then measured at a wavelength of from 200 nm to 800 nm (Examples 9 and 33) and from 190 nm to 800 nm.

Compound | reduction of β-amyloid peptide production as compared to control [1] | inhibition at 7.5 µM (5-lipoxygenase; 7.5 μM compound) [%] | cytotoxic effect on the 293 751 SWE cells (293 751 SWE cells) | inhibition at 6 µM (5-lipoxygenase; 6 μM compound) [%] | Abs (at λmax) (Ultraviolet absorption) | E = Extinction coefficient (Ultraviolet absorption) [AU/mg/mL/cm] | λmax (Ultraviolet absorption) [nm] | λother (shoulder) (Ultraviolet absorption) [nm]
COc1ccc2c(c1)c(CC1=NN(C(C)(C)C)C(=O)C1)c(C)n2C(=O)c1ccc(Cl)cc1 [Example 14, 3-[1-(4-chlorobenzoyl)-5-methoxy-2-methyl-3-indolylmethyl]-1-t-butyl-5-pyrazolone] | at least 20% | 48 | did not have a significant cytotoxic effect |  |  |  |  | 
COc1ccc2c(c1)c(CC1=NN(C3CCCCC3)C(=O)C1)c(C)n2C(=O)c1ccc(Cl)cc1 [Example 9, 3-[1-(4-chlorobenzoyl)-5-methoxy-2-methyl-3-indolylmethyl]-1-cyclohexyl-5-pyrazolone] | at least 20% |  | did not have a significant cytotoxic effect | 75 | 2.3299 | 23.29 | 251 | 318
